Data as given in publication PMC6009867, “Microwave-assisted synthesis and bioevaluation of new sulfonamides” (Journal of Enzyme Inhibition and Medicinal Chemistry, 2017).

Experiments:
[1] = Cytotoxicity assay (MTT), HPC cells; format: cell-based; settings: human, pulp cells (HPC), normal oral cells
Protocol: (§1) The cytotoxicity of the compounds were assayed toward human oral squamous cell carcinoma cell lines derived from gingiva tissue (CA9–22) and tongue (HSC-2, HSC-3, HSC-4), and human normal oral cells (gingival fibroblasts, HGF; periodontal ligament fibroblasts, HPLF; pulp cells, HPC) with some minor modifications[16]^,[17]^,[26]^,[30–33]. In brief, cells were cultured in DMEM supplemented with 10% fetal bovine serum (FBS). Cells (2.5 × 10^3 cells/well) were inoculated and incubated for 48 h to achieve complete adherence. Near confluent cells were incubated for a further 48 h in the fresh culture medium containing each test compound (3.12, 6.25, 12.5, 25, 50, 100, 200, 400 μM) or 5-FU (positive control) (7.8, 15.6, 31.2, 62.5, 125, 250, 500, 1000 μM). The viable cell numbers were determined by the MTT method. Cytotoxicity induced by DMSO (0.0078, 0.0156, 0.03125, 0.0625, 0.125, 0.25, 0.5 or 1%) was subtracted from each well. The CC50 values were determined from the dose-response curves. The tumor selectivity (TS) was calculated by the following equation: TS = mean CC50 against normal cells/mean CC50 against cancer cells [shown as (D/B) or (C/A) in Table 1]. A potency selectivity expression (PSE) was calculated by multiplying the reciprocal of average CC50 values toward cancer cell lines and the average SI values toward these cell lines and expressed as a percentage [PSE = (D/B^2) × 100].

[2] = test system: HSC-2 (human oral squamous cell carcinoma, tongue); experiment: Cytotoxicity assay (MTT), HSC-2 cells; format: cell-based; settings: for CC50: Homo sapiens, HSC-2, 48 h, MTT; for SI HSC-2: average CC50 of nonmalignant cells / CC50 toward HSC-2; for times of potency versus 5-FU toward HSC-2: CC50 ratio to reference 5-FU
Protocol: as §1

[3] = test system: Human oral squamous cell carcinoma cells; experiment: Cytotoxicity assay (MTT), mean over four OSCC cell lines; format: cell-based; settings: for CC50: Homo sapiens, mean of Ca9-22, HSC-2, HSC-3, HSC-4, read-out: (B) Mean CC50, human oral squamous cell carcinoma cells; for TS (D/B): mean CC50 normal cells / mean CC50 OSCC cells; for PSE (D/B^2) × 100: potency selectivity expression, expressed as a percentage
Protocol: as §1

[4] = test system: HSC-3 (human oral squamous cell carcinoma, tongue); experiment: Cytotoxicity assay (MTT), HSC-3 cells; format: cell-based; settings: for CC50: Homo sapiens, HSC-3, 48 h, MTT; for SI HSC-3: average CC50 of nonmalignant cells / CC50 toward HSC-3
Protocol: as §1

[5] = test system: Ca9-22 (human oral squamous cell carcinoma, gingiva); experiment: Cytotoxicity assay (MTT), Ca9-22 cells; format: cell-based; settings: for TS (C/A): CC50 HGF / CC50 Ca9-22; for CC50: Homo sapiens, Ca9-22, 48 h, MTT, triplicate wells; for SI Ca9-22: average CC50 of nonmalignant cells / CC50 toward Ca9-22; for times of potency versus 5-FU toward Ca9-22: CC50 ratio to reference 5-FU
Protocol: as §1

[6] = Cytotoxicity assay (MTT), mean over three normal oral cells; format: cell-based; settings: human; mean of HGF, HPLF, HPC; read-out: (D) Mean CC50, human normal oral cells
Protocol: as §1

[7] = test system: HSC-4 (human oral squamous cell carcinoma, tongue); experiment: Cytotoxicity assay (MTT), HSC-4 cells; format: cell-based; settings: for CC50: Homo sapiens, HSC-4, 48 h, MTT; for SI HSC-4: average CC50 of nonmalignant cells / CC50 toward HSC-4
Protocol: as §1

[8] = Cytotoxicity assay (MTT), HGF cells; format: cell-based; settings: human, gingival fibroblasts (HGF), normal oral cells
Protocol: as §1

[9] = Cytotoxicity assay (MTT), HPLF cells; format: cell-based; settings: human, periodontal ligament fibroblasts (HPLF), normal oral cells
Protocol: as §1

hCA I = hCA I (Homo sapiens, UniProt P00915); experiment: Carbonic anhydrase inhibition assay (esterase activity, 348 nm), hCA I; format: biochemical; settings: for Ki: Lineweaver-Burk, three concentrations; for IC50: from activity (%) versus compound plots; for times more potent than AZA toward hCA I: in terms of IC50 values
Chain of hCA I (P00915 whole entry): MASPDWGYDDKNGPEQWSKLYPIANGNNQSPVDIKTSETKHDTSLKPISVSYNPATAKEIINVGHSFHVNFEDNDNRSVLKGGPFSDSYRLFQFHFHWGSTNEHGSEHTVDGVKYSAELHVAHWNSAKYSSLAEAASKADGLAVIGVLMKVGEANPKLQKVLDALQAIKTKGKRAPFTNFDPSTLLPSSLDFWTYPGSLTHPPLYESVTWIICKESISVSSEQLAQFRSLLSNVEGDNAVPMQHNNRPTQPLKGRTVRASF

hCA II = hCA II (Homo sapiens, UniProt P00918); experiment: Carbonic anhydrase inhibition assay (esterase activity, 348 nm), hCA II; format: biochemical; settings: for Ki: Lineweaver-Burk, three concentrations; for IC50: from activity (%) versus compound plots; for times more potent than AZA toward hCA II: in terms of IC50 values

Row | Compound | CC50 at 48 h [1] | CC50 [2] | SI HSC-2 [2] | CC50 [3] | TS (D/B) [3] | PSE (D/B^2) × 100 [3] | CC50 [4] | SI HSC-3 [4] | TS (C/A) [5] | CC50 [5] | SI Ca9-22 [5] | CC50 at 48 h [6] | CC50 [7] | CC50 at 48 h [8] | CC50 at 48 h [9] | Ki (hCA I) | IC50 (hCA I) | times more potent than AZA toward hCA I (hCA I) | times of potency versus 5-FU toward Ca9-22 [5] | Ki (hCA II) | other results
1 | O=c1[nH]cc(F)c(=O)[nH]1 [Compound 5-FU, 5-Fluorouracil, reference compound] | > 1000 µM | 45.7 µM | >16.1 | 47.6 µM | >15.5 | >32.6 | 27.3 µM | >71.5 | >10.0 | 100 µM | >167.3 | > 736 µM | 17.3 µM | > 1000 µM | 208 µM |  |  |  |  |  | 
2 | NS(=O)(=O)c1ccc(N2N=C(c3ccccc3)CC2c2ccc(O)cc2)cc1 (stereo not shown) [Compound 8, 4-[5-(4-Hydroxyphenyl)-3-phenyl-4,5-dihydro-1H-pyrazol-1-yl]benzenesulfonamide] | 88.3 µM | 67 µM | 1.1 | 56.4 µM | 1.3 | 2.3 | 66.3 µM | 1.1 | 2.0 | 42 µM | 1.8 | 75.9 µM | 50.3 µM | 85 µM | 54.3 µM | 0.00484 ± 0.00078 µM | 0.00481 µM | 39.5 | 2.4 | 0.00459 ± 0.00083 µM | IC50 (hCA II): 0.00495 µM; times more potent than AZA toward hCA II (hCA II): 40.3; SI HSC-4 [7]: 1.5
3 | Cc1ccc(C2=NN(c3ccc(S(N)(=O)=O)cc3)C(c3ccc(O)cc3)C2)cc1 (stereo not shown) [Compound 9, 4-[5-(4-Hydroxyphenyl)-3-(4-methylphenyl)-4,5-dihydro-1H-pyrazol-1-yl]benzene sulfonamide] | 49.7 µM | 33.3 µM | 1.3 | 32.6 µM | 1.4 | 4.2 | 39.7 µM | 1.1 | 1.7 | 25.7 µM | 1.7 | 44.2 µM | 31.7 µM | 43.7 µM | 39.3 µM | 0.00459 ± 0.00125 µM | 0.00529 µM | 35.9 | 3.9 | 0.00748 ± 0.00252 µM | times of potency versus 5-FU toward HSC-2 [2]: 1.4; IC50 (hCA II): 0.00563 µM; times more potent than AZA toward hCA II (hCA II): 35.5; SI HSC-4 [7]: 1.4
4 | COc1ccc(C2=NN(c3ccc(S(N)(=O)=O)cc3)C(c3ccc(O)cc3)C2)cc1 (stereo not shown) [Compound 10, 4-[5-(4-Hydroxyphenyl)-3-(4-methoxyphenyl)-4,5-dihydro-1H-pyrazol-1-yl] benzenesulfonamide] | 61 µM | 65.3 µM | 0.8 | 47.7 µM | 1.1 | 2.2 | 47 µM | 1.1 | 1.3 | 37.7 µM | 1.3 | 50.8 µM | 40.7 µM | 47.3 µM | 44 µM | 0.00399 ± 0.0009 µM | 0.00484 µM | 39.3 | 2.7 | 0.00507 ± 0.00169 µM | IC50 (hCA II): 0.00537 µM; times more potent than AZA toward hCA II (hCA II): 37.1; SI HSC-4 [7]: 1.2
5 | NS(=O)(=O)c1ccc(N2N=C(c3ccc(F)cc3)CC2c2ccc(O)cc2)cc1 (stereo not shown) [Compound 11, 4-[5-(4-Hydroxyphenyl)-3-(4-fluorophenyl)-4,5-dihydro-1H-pyrazol-1-yl] benzenesulfonamide] | 67.7 µM | 46.3 µM | 1.3 | 41.3 µM | 1.4 | 3.5 | 43.3 µM | 1.4 | 1.8 | 36.3 µM | 1.6 | 59.1 µM | 39.3 µM | 66.7 µM | 43 µM | 0.0051 ± 0.00117 µM | 0.00568 µM | 33.5 | 2.8 | 0.00453 ± 0.00075 µM | times of potency versus 5-FU toward HSC-2 [2]: 1.0; IC50 (hCA II): 0.00572 µM; times more potent than AZA toward hCA II (hCA II): 34.9; SI HSC-4 [7]: 1.5
6 | NS(=O)(=O)c1ccc(N2N=C(c3ccc(Cl)cc3)CC2c2ccc(O)cc2)cc1 (stereo not shown) [Compound 12, 4-[5-(4-Hydroxyphenyl)-3-(4-chlorophenyl)-4,5-dihydro-1H-pyrazol-1-yl] benzenesulfonamide] | 50.7 µM | 39 µM | 1.1 | 32.8 µM | 1.4 | 4.1 | 38.3 µM | 1.2 | 2.0 | 22.3 µM | 2.0 | 44.3 µM | 31.3 µM | 44 µM | 38.3 µM | 0.00449 ± 0.00067 µM | 0.00491 µM | 38.7 | 4.5 | 0.00406 ± 0.0006 µM | times of potency versus 5-FU toward HSC-2 [2]: 1.2; IC50 (hCA II): 0.00425 µM; times more potent than AZA toward hCA II (hCA II): 46.9; SI HSC-4 [7]: 1.4
